Series [1] is described as follows: log P by HPLC on reversed-phase column (EEC Directive 79/831 Annex V.A8). Conditions: 0.1% aqueous formic acid and acetonitrile, linear gradient 10% to 90% acetonitrile. The format is physicochemical. Put shortly: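 40° C; 0.1% aq. formic acid/acetonitrile, linear gradient 10→90% acetonitrile. Calibration: unbranched alkan-2-ones (C3–C16), known log P. log P from retention time, linear interpolation between neighbouring alkanones. lambda-max from UV 200–400 nm at peak maxima.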

The next series concerns Alternaria solani. The series is described as follows: In vivo preventive test on Alternaria solani (tomato). The following applies: preventive spray, 500 ppm of active ingredient, evaluated 7 days after inoculation. The method, then:
In Vivo Preventive Test on Alternaria Solani (Tomato)
(§1) Solvent: 49 parts by weight of N,N-dimethylformamide
(§2) Emulsifier: 1 part by weight of alkylarylpolyglycolether
(§3) To produce a suitable preparation of active compound, 1 part by weight of active compound is mixed with the stated amounts of solvent and emulsifier, and the concentrate is diluted with water to the desired concentration.
To test for preventive activity, young plants are sprayed with the preparation of active compound at the stated rate of application. One day after this treatment, the plants are inoculated with an aqueous spore suspension of Alternaria solani. The plants remain for one day in an incubation cabinet at approximately 22° C. and a relative atmospheric humidity of 100%. Then the plants are placed in an incubation cabinet at approximately 20° C. and a relative atmospheric humidity of 96%.
The test is evaluated 7 days after the inoculation. 0% means an efficacy which corresponds to that of the untreated control while an efficacy of 100% means that no disease is observed.

The next series has as its system Pyrenophora teres. Nature of the series: In vivo preventive test on Pyrenophora teres (barley). The following applies: preventive spray, 500 ppm of active ingredient, evaluated 7-9 days after inoculation. The method, then:
In Vivo Preventive Test on Pyrenophora teres (Barley)
Solvent: 49 parts by weight of N,N-dimethylacetamid
(§4) Emulsifier: 1 part by weight of alkylaryl polyglycol ether
as §3
To test for preventive activity, young plants are sprayed with the preparation of active compound at the stated rate of application. One day after this treatment, the plants are inoculated with an aqueous spore suspension of Pyrenophora teres. The plants remain for 48 hours in an incubation cabinet at 22° C. and a relative atmospheric humidity of 100%. Then the plants are placed in a greenhouse at a temperature of approximately 20° C. and a relative atmospheric humidity of approximately 80%.
The test is evaluated 7-9 days after the inoculation. 0% means an efficacy which corresponds to that of the untreated control while an efficacy of 100% means that no disease is observed.

For another series, the system named is Sphaerotheca fuliginea. Nature of the series: In vivo preventive test on Sphaerotheca fuliginea (cucumber). The following applies: preventive spray, 500 ppm of active ingredient, evaluated 7 days after inoculation. The protocol: In Vivo Preventive Test on Sphaerotheca fuliginea (Cucumber)
as §1, §2, §3
To test for preventive activity, young plants are sprayed with the preparation of active compound at the stated rate of application. After the spray coating has dried on, the plants are inoculated with an aqueous spore suspension of Sphaerotheca fuliginea. The plants are then placed in a greenhouse at approximately 23° C. and a relative atmospheric humidity of approximately 70%.
The test is evaluated 7 days after the inoculation. 0% means an efficacy which corresponds to that of the untreated control, while an efficacy of 100% means that no disease is observed.

The test system of another series is Leptosphaeria nodorum. The series is described as follows: In vivo preventive test on Leptosphaeria nodorum (wheat). The following applies: preventive spray, 500 ppm of active ingredient, evaluated 7-9 days after inoculation. The protocol:
In Vivo Preventive Test on Leptosphaeria nodorum (Wheat)
Solvent: 49 parts by weight of N,N-dimethylacetamide
as §4, §3
To test for preventive activity, young plants are sprayed with a preparation of active compound at the stated rate of application. One day after this treatment, the plants are inoculated with an aqueous spore suspension of Leptosphaeria nodorum. The plants remain for 48 hours in an incubation cabinet at 22° C. and a relative atmospheric humidity of 100%. Then the plants are placed in a greenhouse at a temperature of approximately 22° C. and a relative atmospheric humidity of approximately 90%.
The test is evaluated 7-9 days after the inoculation. 0% means an efficacy which corresponds to that of the untreated control, while an efficacy of 100% means that no disease is observed.
Under these conditions, good (at least 70%) to excellent protection (at least 95%) is observed at a dose of 500 ppm of active ingredient with the following compounds from table D: […]

[2] abbreviates: HPLC, reversed-phase C 18, 40° C.
The mark [3] stands for this setting: HPLC on reversed-phase column (C 18), 40° C.

The structures appear in SMILES notation.

Broadly, the logP is the decadic logarithm of the partition coefficient of the neutral form, usually between octanol and water. Higher therefore signals higher lipophilicity. `CCc1ccccc1CN(C(=O)c1c(C(F)F)nn(C)c1F)C1CCC1` [Example 12] came in with a lipophilicity (logP) in series [1] (setting [2]) of 3.63. For the same compound, the results for the Efficacy in the series with Alternaria solani, with Pyrenophora teres and in the series with Sphaerotheca fuliginea were 90%, 100% and 95%, respectively.

`CCc1ccccc1CN(CC)C(=O)c1c(C(F)F)nn(C)c1F` [Example 13] came in with a lipophilicity (logP) in series [1] (setting [2]) of 3.13. For the same compound, the Efficacy in the series on Alternaria solani is reported as 95%; in the series on Pyrenophora teres, 95%; in the series on Sphaerotheca fuliginea, 90%.

In series [1] (setting [2]), `CCc1ccccc1CN(C)C(=O)c1c(C(F)F)nn(C)c1F` [Example 15] yielded a logP of 2.81. Besides, the Efficacy in the series with Alternaria solani is reported as 95%; in the series with Pyrenophora teres, 95%; in the series with Sphaerotheca fuliginea, 83%.

`C#CCN(Cc1ccccc1CC)C(=O)c1c(C(F)F)nn(C)c1F` [Example 17] gave a log partition coefficient (logP) in series [1] (setting [2]) of 3.10. The Efficacy in the series with Alternaria solani is reported as 80%; in the series with Pyrenophora teres, 100%; with Sphaerotheca fuliginea, 94%.

Regarding `Cn1nc(C(F)F)c(C(=O)N(Cc2ccc(Cl)cc2Cl)C2CCC2)c1Cl` [Example 30], in series [1] (setting [2]), the logP was determined as 4.39. The Efficacy was determined as 90% in the series on Leptosphaeria nodorum and 100% in the series on Pyrenophora teres.

`Cn1nc(C(F)F)c(C(=O)N(Cc2ccc(Cl)cc2Cl)C2CCC2)c1F` [Example 31]: the log partition coefficient (logP) in series [1] (setting [2]) came to 4.19. The Efficacy came out at 80% in the series with Leptosphaeria nodorum and 100% in the series on Pyrenophora teres.

Take `CC(NC(=O)c1c(C(F)F)nn(C)c1Cl)c1ccc(Cl)cc1Cl` (stereo not shown) [Example 33]: in series [1] (setting [2]), the logP is listed as 4.39. Besides, the Efficacy in the series on Alternaria solani is recorded as 95%; in the series on Pyrenophora teres it was 100%; in the series with Sphaerotheca fuliginea, 96%.

With `CC(NC(=O)c1c(C(F)F)nn(C)c1F)c1ccc(Cl)cc1Cl` (stereo not shown) [Example 36], the logP in series [1] (setting [2]) worked out at 4.39. The Efficacy worked out at 94% in the series with Alternaria solani, 100% in the series on Pyrenophora teres and 93% in the series with Sphaerotheca fuliginea.

Regarding `Cn1nc(C(F)F)c(C(=O)NC2(c3ccc(Cl)cc3Cl)CC2)c1F` [Example 38], in series [1] (setting [2]), the logP is 3.89. Besides, the Efficacy in the series with Alternaria solani is on record as 94%; with Pyrenophora teres, 95%; in the series with Sphaerotheca fuliginea, 89%.

The compound `Cn1nc(C(F)F)c(C(=O)NC(c2ccc(Cl)cc2Cl)C(F)(F)F)c1F` (stereo not shown) [Example 40] showed a logP in series [1] (setting [2]) of 4.19. Moreover, the Efficacy came to 94% in the series with Alternaria solani, 95% in the series with Pyrenophora teres and 83% with Sphaerotheca fuliginea.

Compound `CC(NC(=O)c1c(C(F)F)nn(C)c1Cl)c1cc(Cl)ccc1Cl` (stereo not shown) [Example 50] had a lipophilicity (logP) in series [1] (setting [2]) of 4.39. The Efficacy in the series on Alternaria solani came to 95%; in the series with Pyrenophora teres, 95%; with Sphaerotheca fuliginea it was 98%.

In the case of `CC(NC(=O)c1c(C(F)F)nn(C)c1F)c1cc(Cl)ccc1Cl` (stereo not shown) [Example 53], the lipophilicity (logP) in series [1] (setting [2]) was determined as 4.39. Further, the Efficacy in the series on Alternaria solani is given as 94%; in the series on Pyrenophora teres, 95%; in the series with Sphaerotheca fuliginea it was 95%.

With `CC(c1cc(Cl)ccc1Cl)N(C)C(=O)c1c(C(F)F)nn(C)c1Cl` (stereo not shown) [Example 55], the logP in series [1] (setting [2]) was 3.33. Moreover, the Efficacy with Alternaria solani is 95%; in the series on Pyrenophora teres, 100%; with Sphaerotheca fuliginea, 83%.

With `Cn1nc(C(F)F)c(C(=O)NCc2ccccc2C2CC2)c1F` [Example 65], the logP in series [1] (setting [2]) amounted to 2.78. Also, the Efficacy with Alternaria solani came out at 90%; in the series with Pyrenophora teres, 94%; in the series with Sphaerotheca fuliginea, 85%.

As for `CC(C)c1ccccc1CN(C(=O)c1c(C(F)F)nn(C)c1F)C1CCC1` [Example 70], the logP in series [1] (setting [2]) amounted to 3.90. Also, the Efficacy with Alternaria solani stood at 90%; with Pyrenophora teres, 100%; in the series on Sphaerotheca fuliginea, 100%.

In turn, `C=CCN(Cc1ccccc1C(C)C)C(=O)c1c(C(F)F)nn(C)c1F` [Example 71] returned a logP in series [1] (setting [2]) of 3.66. Besides, the Efficacy in the series on Alternaria solani was 95%; with Pyrenophora teres, 95%; in the series with Sphaerotheca fuliginea, 91%.

Regarding `C#CCN(Cc1ccccc1C(C)C)C(=O)c1c(C(F)F)nn(C)c1F` [Example 73], in series [1] (setting [2]), the logP is 3.37. Further, the Efficacy worked out at 95% in the series with Alternaria solani, 100% in the series on Pyrenophora teres and 98% in the series on Sphaerotheca fuliginea.

`CC(C)c1ccccc1CN(CC(F)F)C(=O)c1c(C(F)F)nn(C)c1F` [Example 78] yielded a logP in series [1] (setting [2]) of 3.49. Besides, the values for the Efficacy in the series with Alternaria solani, in the series with Pyrenophora teres and with Sphaerotheca fuliginea were 100%, 100% and 93%, respectively.

Compound `CC(C)c1ccccc1CNC(=O)c1c(C(F)F)nn(C)c1Cl` [Example 79] displayed a logP in series [1] (setting [2]) of 3.19. Further, the figures for the Efficacy in the series with Leptosphaeria nodorum and in the series on Pyrenophora teres were 94% and 95%, respectively.

On to `CC(NC(=O)c1c(C(F)F)nn(C)c1Cl)c1ccccc1C(F)(F)F` (stereo not shown) [Example 82], for which the logP in series [1] (setting [2]) came out at 3.11. Also, the Efficacy in the series with Alternaria solani was determined as 100%; in the series with Pyrenophora teres, 95%; in the series on Sphaerotheca fuliginea it was 94%.

In series [1] (setting [2]), `CC(NC(=O)c1c(C(F)F)nn(C)c1F)c1ccccc1C(F)(F)F` (stereo not shown) [Example 84] gave a logP of 2.96. In addition, the Efficacy worked out at 100% with Alternaria solani, 100% in the series with Pyrenophora teres and 90% in the series with Sphaerotheca fuliginea.

As to `CCN(Cc1c(Cl)cccc1C(F)(F)F)C(=O)c1c(C(F)F)nn(C)c1F` [Example 91], in series [1] (setting [2]), the log partition coefficient (logP) is 3.22. Moreover, the Efficacy in the series with Alternaria solani was 100%; in the series on Pyrenophora teres, 95%; with Sphaerotheca fuliginea, 95%.

Regarding `CN(Cc1ccccc1[Si](C)(C)C)C(=O)c1c(C(F)F)nn(C)c1F` [Example 103], the lipophilicity (logP) in series [1] (setting [2]) was determined as 3.78. The Efficacy is reported as 90% in the series on Alternaria solani, 70% in the series with Pyrenophora teres and 91% with Sphaerotheca fuliginea.

`Cn1nc(C(F)F)c(C(=O)NC(C)(C)c2cc(Cl)cc(Cl)c2)c1Cl` [Example 112] displayed a logP in series [1] (setting [3]) of 3.73. Further, the Efficacy is 80% in the series on Alternaria solani, 95% with Pyrenophora teres and 95% in the series with Sphaerotheca fuliginea.

`CC(c1cc(Cl)cc(Cl)c1)N(C)C(=O)c1c(C(F)F)nn(C)c1Cl` (stereo not shown) [Example 116] yielded a lipophilicity (logP) in series [1] (setting [3]) of 3.65. In addition, the Efficacy in the series on Alternaria solani was 95%; in the series with Pyrenophora teres, 100%; with Sphaerotheca fuliginea, 75%.

On to `Cn1nc(C(F)F)c(C(=O)NCc2ccc(C(C)(C)C)cc2)c1F` [Example 135], for which the lipophilicity (logP) in series [1] (setting [3]) was 3.42. Besides, the Efficacy with Leptosphaeria nodorum was found to be 75%.

As to `Cn1nc(C(F)F)c(C(=O)NCc2ccc(C(C)(C)C)cc2)c1Cl` [Example 136], the logP in series [1] (setting [3]) is listed as 3.58. This compound showed an Efficacy with Leptosphaeria nodorum of 70%.

`CC(c1ncc(Cl)cc1Cl)N(C(=O)c1c(C(F)F)nn(C)c1F)C1CCCC1` (stereo not shown) [Example 187] gave a log partition coefficient (logP) in series [1] (setting [3]) of 4.44. The Efficacy is given as 80% in the series on Leptosphaeria nodorum and 90% in the series on Pyrenophora teres.

The compound `CCC(NC(=O)c1c(C(F)F)nn(C)c1Cl)c1ccc(Cl)cc1Cl` (stereo not shown) [Example 191] had a logP in series [1] (setting [3]) of 3.79. Further, the Efficacy in the series on Alternaria solani was 95%; in the series on Pyrenophora teres, 100%; in the series on Sphaerotheca fuliginea, 100%.

In turn, `CCC(NC(=O)c1c(C(F)F)nn(C)c1F)c1ccc(Cl)cc1Cl` (stereo not shown) [Example 192] displayed a log partition coefficient (logP) in series [1] (setting [3]) of 3.61. In addition, the Efficacy was found to be 95% in the series on Alternaria solani, 100% in the series on Pyrenophora teres and 100% in the series on Sphaerotheca fuliginea.

The values are drawn from US9084424B2, “N-benzyl heterocyclic carboxamides” (BAYER INTELLECTUAL PROPERTY GMBH, priority 2010, dated 2015).
